For assay [1], the system named is Salmonella typhimurium. Put plainly: Antibacterial activity against Salmonella typhimurium ATCC 14028 at pH 7 after 16 to 18 hrs by broth microdilution method. To be noted: Salmonella enterica. The class given is functional, Salmonella enterica subsp. enterica serovar Typhimurium. A general note: Dilution methods test growth across graded concentrations, often in twofold steps.

For assay [2], the system named is Salmonella typhimurium. In words: Antibacterial activity against Salmonella typhimurium ATCC 14028 at pH 5 after 16 to 18 hrs by broth microdilution method. The class given is functional, Salmonella enterica subsp. enterica serovar Typhimurium. Conditions: Salmonella enterica.
Assay [3] deals with Salmonella typhimurium. Put plainly: Antibacterial activity against Salmonella typhimurium ATCC 14028 assessed as survival at 10 uM after 3 hrs by broth microdilution method. Format: functional, Salmonella enterica subsp. enterica serovar Typhimurium.
Assay [4] deals with Salmonella typhimurium. In words: Bactericidal activity against Salmonella typhimurium ATCC 14028 at 10 uM within 3 to 9 hrs. Format: functional, Salmonella enterica subsp. enterica serovar Typhimurium.
The test system of assay [5] is Salmonella typhimurium. In words: Bactericidal activity against Salmonella typhimurium ATCC 14028 at 0.125 to 1 times MIC after 24 hrs by dose-kill assay. Format: functional, organism-based. Conditions: Salmonella enterica subsp. enterica serovar Typhimurium.
In assay [6] the test system is Salmonella typhimurium. In words: Bactericidal activity against Salmonella typhimurium ATCC 14028 at 10 uM up to 9 hrs. The class given is functional, organism-based. Conditions: Salmonella enterica subsp. enterica serovar Typhimurium.
Assay [7] concerns Salmonella typhimurium. Put plainly: Bactericidal activity against Salmonella typhimurium ATCC 14028 at 1 to 2 times MIC after 2 hrs by time-kill assay. The class given is functional, organism-based. To be noted: Salmonella enterica subsp. enterica serovar Typhimurium.

≈ marks a conversion by molar mass, not a printed value. Calls of active or inactive are those of the source.

Data on five molecules can be found in ChEMBL document CHEMBL4251646, “Improved antibacterial activity of a marine peptide-N2 against intracellular Salmonella typhimurium by conjugating with cell-penetrating peptides-bLFcin6/Tat11” (Eur J Med Chem, 2018).

In assay [1], `N=C(N)NCCC[C@H](NC(=O)[C@H](CCCNC(=N)N)NC(=O)[C@H](CCCNC(=N)N)NC(=O)[C@H](CCC(N)=O)NC(=O)[C@H](CCCNC(=N)N)NC(=O)[C@H](CCCNC(=N)N)NC(=O)[C@H](CCCCN)NC(=O)[C@H](CCCCN)NC(=O)[C@H](CCCNC(=N)N)NC(=O)CNC(=O)[C@@H](N)Cc1ccc(O)cc1)C(=O)O` yielded an MIC above 80 µM.
Regarding H-RRWQWR-OH, the minimal inhibitory concentration (MIC) in assay [1] was above 80 µM.
As for `CC(C)[C@@H]1NC(=O)[C@H](C)NC(=O)[C@H](CC(N)=O)NC(=O)[C@H](CCCNC(=N)N)NC(=O)[C@H](Cc2ccc(O)cc2)NC(=O)[C@H](C(C)C)NC(=O)[C@@H]2CSSC[C@H](NC(=O)[C@H](C(C)C)NC(=O)[C@H](CCCNC(=N)N)NC1=O)C(=O)N[C@@H](Cc1cnc[nH]1)C(=O)N[C@@H](CCCNC(=N)N)C(=O)N[C@@H](CCCNC(=N)N)C(=O)N[C@H](C(=O)N[C@@H](CC(N)=O)C(=O)O)CSSC[C@H](NC(=O)[C@H](Cc1ccccc1)NC(=O)[C@H](C)N)C(=O)N[C@@H](Cc1c[nH]c3ccccc13)C(=O)N[C@@H](CC(N)=O)C(=O)N[C@@H](C(C)C)C(=O)N2`, the results for the MIC in assay [1] and in assay [2] were 0.78 µM (≈ 2 µg/mL) and 25 µM (≈ 64.2 µg/mL), respectively. Also, the Survival in assay [3] was determined as 2.3 ×10⁵ CFU/ml. In addition, in assay [4], the Activity is recorded as 22.41 - 69.74%.
`CC(C)[C@@H]1NC(=O)[C@H](C)NC(=O)[C@H](CC(N)=O)NC(=O)[C@H](CCCNC(=N)N)NC(=O)[C@H](Cc2ccc(O)cc2)NC(=O)[C@H](C(C)C)NC(=O)[C@@H]2CSSC[C@H](NC(=O)[C@H](C(C)C)NC(=O)[C@H](CCCNC(=N)N)NC1=O)C(=O)N[C@@H](Cc1cnc[nH]1)C(=O)N[C@@H](CCCNC(=N)N)C(=O)N[C@@H](CCCNC(=N)N)C(=O)N[C@@H](C(=O)N[C@@H](CC(N)=O)C(=O)O)CSSC[C@H](NC(=O)[C@H](Cc1ccccc1)NC(=O)[C@H](C)N)C(=O)N[C@@H](Cc1c[nH]c3ccccc13)C(=O)N[C@@H](CC(N)=O)C(=O)N[C@@H](C(C)C)C(=O)N2`: the outcome in assay [5] was Active. Also, in assay [6], the result was inactive.
As for `CC(C)[C@@H]1NC(=O)[C@H](C)NC(=O)[C@H](CC(N)=O)NC(=O)[C@H](CCCNC(=N)N)NC(=O)[C@H](Cc2ccc(O)cc2)NC(=O)[C@H](C(C)C)NC(=O)[C@@H]2CSSC[C@@H](NC(=O)[C@H](C(C)C)NC(=O)[C@H](CCCNC(=N)N)NC1=O)C(=O)N[C@@H](Cc1cnc[nH]1)C(=O)N[C@@H](CCCNC(=N)N)C(=O)N[C@@H](CCCNC(=N)N)C(=O)N[C@H](C(=O)N[C@@H](CC(N)=O)C(=O)O)CSSC[C@H](NC(=O)[C@H](Cc1ccccc1)NC(=O)[C@H](C)NC(=O)[C@H](CCCNC(=N)N)NC(=O)[C@H](Cc1c[nH]c3ccccc13)NC(=O)[C@H](CCC(N)=O)NC(=O)[C@H](Cc1c[nH]c3ccccc13)NC(=O)[C@H](CCCNC(=N)N)NC(=O)[C@@H](N)CCCNC(=N)N)C(=O)N[C@@H](Cc1c[nH]c3ccccc13)C(=O)N[C@@H](CC(N)=O)C(=O)N[C@@H](C(C)C)C(=O)N2`, the result in assay [7] and in assay [5] was Active. In assay [6], the result was inactive.

Broadly, the MIC is the smallest concentration in the dilution series that meets the test's criterion for growth inhibition. Low readings indicate a more susceptible organism, high ones a less susceptible organism.
